Where two headings read alike, the source gives them in different places.
Biological target: human O-GlcNAcase (Homo sapiens (Human), UniProt O60502)
Test: Fluorescence-based assay for determination of KI values for inhibition of O-GlcNAcase activity
Type: biochemical
Procedure: Assay for Determination of KI Values for Inhibition of O-GlcNAcase Activity
Experimental Procedure for Kinetic Analyses
Enzymatic reactions are carried out in a reaction containing 50 mM NaH2PO4, 100 mM NaCl and 0.1% BSA (pH 7.0) using 2 mM 4-Methylumbelliferyl N-acetyl-β-D-glucosaminide dihydrate (Sigma M2133) dissolved in ddH2O, as a substrate. The amount of purified human O-GlcNAcase enzyme used in the reaction is 0.7 nM. Test compound of varying concentrations is added to the enzyme prior to initiation of the reaction. The reaction is performed at room temperature in a 96-well plate and is initiated with the addition of substrate. […] The slope of product production is determined for each concentration of compound tested and plotted, using standard curve fitting algorithms for sigmoidal dose response curves. The values for a four parameter logistic curve fit of the data are determined.

[1] = purified human O-GlcNAcase, 4-Methylumbelliferyl N-acetyl-β-D-glucosaminide substrate, pH 7.0, Cheng-Prusoff, read-out: Fluorescence-based hOGA Ki

Sequence of human O-GlcNAcase (O60502 whole entry): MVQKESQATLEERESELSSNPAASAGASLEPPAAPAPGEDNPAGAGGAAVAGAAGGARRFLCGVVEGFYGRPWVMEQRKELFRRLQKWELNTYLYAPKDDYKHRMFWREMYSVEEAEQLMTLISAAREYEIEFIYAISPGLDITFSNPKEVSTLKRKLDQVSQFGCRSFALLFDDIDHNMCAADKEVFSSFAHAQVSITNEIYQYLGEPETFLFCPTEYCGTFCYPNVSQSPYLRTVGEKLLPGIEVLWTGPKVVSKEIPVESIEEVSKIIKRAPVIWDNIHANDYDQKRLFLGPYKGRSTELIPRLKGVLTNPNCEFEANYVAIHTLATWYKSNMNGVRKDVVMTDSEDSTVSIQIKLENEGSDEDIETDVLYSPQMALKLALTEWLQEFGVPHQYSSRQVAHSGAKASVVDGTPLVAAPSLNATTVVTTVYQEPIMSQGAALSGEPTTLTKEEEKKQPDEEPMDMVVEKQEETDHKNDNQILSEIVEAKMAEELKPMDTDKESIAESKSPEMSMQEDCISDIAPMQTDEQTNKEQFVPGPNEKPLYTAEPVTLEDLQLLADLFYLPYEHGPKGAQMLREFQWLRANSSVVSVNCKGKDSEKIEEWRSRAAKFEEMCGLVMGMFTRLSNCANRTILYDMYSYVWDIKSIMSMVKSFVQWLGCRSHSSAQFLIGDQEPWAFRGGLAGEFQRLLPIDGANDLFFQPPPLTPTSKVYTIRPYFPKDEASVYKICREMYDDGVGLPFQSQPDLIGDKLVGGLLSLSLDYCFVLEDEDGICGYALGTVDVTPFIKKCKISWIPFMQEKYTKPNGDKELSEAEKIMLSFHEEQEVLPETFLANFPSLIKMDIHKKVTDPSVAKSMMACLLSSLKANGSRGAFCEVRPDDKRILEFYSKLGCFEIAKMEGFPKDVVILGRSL

Row | Compound | Ki [1] [nM] | Ki [nM]
1 | CN(C)C1=N[C@@H]2[C@@H](O)[C@H](O)[C@@H](C(C)(O)C(F)(F)F)O[C@@H]2S1 (mixture of isomers) [Example 203, (3aR,5S,6S,7R,7aR)-2-(dimethylamino)-5-((S)-1,1,1-trifluoro-2-hydroxypropan-2-yl)-5,6,7,7a-tetrahydro-3aH-pyrano[3,2-d]thiazole-6,7-diol] | 3.16 | 
2 | CNC1=N[C@@H]2[C@@H](O)[C@H](O)[C@@H]([C@H](C)O)O[C@@H]2S1 (single isomer, unassigned) [Example 13] | 0.4 | 
3 | C=CC[C@H](O)[C@H]1O[C@@H]2SC(NC)=N[C@@H]2[C@@H](O)[C@@H]1O (single isomer, unassigned) [Example 25] | 0.7 | 
4 | CCNC1=N[C@@H]2[C@@H](O)[C@H](O)[C@@H]([C@H](C)O)O[C@@H]2S1 (single isomer, unassigned) [Example 27] | 0.12 | 
5 | C=C[C@H](O)[C@H]1O[C@@H]2SC(NCCC)=N[C@@H]2[C@@H](O)[C@@H]1O (single isomer, unassigned) [Example 42] | 1.03 | 
6 | CCCNC1=N[C@H]2C(O[C@H]([C@@H](O)CC)[C@@H](O)[C@@H]2O)S1 (single isomer, unassigned) [Example 47] | 6.4 | 
7 | CON(C)C1=N[C@@H]2[C@@H](O)[C@H](O)[C@@H]([C@H](C)O)O[C@@H]2S1 (single isomer, unassigned) [Example 51] |  | 5.1
8 | C[C@H](O)[C@H]1O[C@@H]2SC(NCC3CC3)=N[C@@H]2[C@@H](O)[C@@H]1O (single isomer, unassigned) [Example 53] | 0.7 | 
9 | CCN(C)C1=N[C@H]2C(O[C@H]([C@H](C)O)[C@@H](O)[C@@H]2O)S1 (single isomer, unassigned) [Example 57] | 0.33 | 
10 | C=CC(O)C1O[C@@H]2SC(N(C)CC)=N[C@@H]2[C@@H](O)[C@@H]1O (single isomer, unassigned) [Example 61] | 2.46 | 
11 | C=C[C@H](O)[C@H]1O[C@@H]2SC(N(C)C)=N[C@@H]2[C@@H](O)[C@@H]1O (single isomer, unassigned) [Example 63] | 0.22 | 
12 | C=C(C)[C@H](O)[C@H]1O[C@@H]2SC(N(C)C)=N[C@@H]2[C@@H](O)[C@@H]1O (single isomer, unassigned) [Example 65] | 0.45 | 
13 | C=CC[C@H](O)[C@H]1O[C@@H]2SC(N(C)C)=N[C@@H]2[C@@H](O)[C@@H]1O (single isomer, unassigned) [Example 67] | 1.25 | 
14 | CCC[C@H](O)[C@H]1O[C@@H]2SC(N(C)C)=N[C@@H]2[C@@H](O)[C@@H]1O (single isomer, unassigned) [Example 69] | 9.36 | 
15 | CCCC[C@H](O)[C@H]1O[C@@H]2SC(N(C)C)=N[C@@H]2[C@@H](O)[C@@H]1O (single isomer, unassigned) [Example 71] | 9.12 | 
16 | C[C@H](O)[C@H]1O[C@@H]2SC(N3CCC3)=N[C@@H]2[C@@H](O)[C@@H]1O (single isomer, unassigned) [Example 76] | 0.18 | 
17 | C=C[C@H](O)[C@H]1O[C@@H]2SC(N3CCC3)=N[C@@H]2[C@@H](O)[C@@H]1O (single isomer, unassigned) [Example 80] | 0.5 | 
18 | C=CC[C@H](O)[C@H]1O[C@@H]2SC(N3CCC3)=N[C@@H]2[C@@H](O)[C@@H]1O (single isomer, unassigned) [Example 82] | 5.84 | 
19 | C[C@H](O)[C@H]1O[C@@H]2SC(N3CCCC3)=N[C@@H]2[C@@H](O)[C@@H]1O (single isomer, unassigned) [Example 91] | 0.53 | 

Row | Compound | Ki [1] [nM] | Ki [nM]
20 | CNC1=N[C@@H]2[C@@H](O)[C@H](O)[C@@H]([C@@H](C)F)O[C@@H]2S1 (single isomer, unassigned) [Example 181] | 0.8 | 
21 | CCN(C)C1=N[C@@H]2[C@@H](O)[C@H](O)[C@@H]([C@@H](O)C(F)(F)F)O[C@@H]2S1 (single isomer, unassigned) [Example 211] | 0.44 | 
22 | C[C@H](O)[C@H]1O[C@@H]2SC(N(C)C)=N[C@@H]2[C@@H](O)[C@@H]1O [Example 1, (3aR,5R,6S,7R,7aR)-2-(Dimethylamino)-5-((S)-1-hydroxyethyl)-5,6,7,7a-tetrahydro-3aH-pyrano[3,2-d]thiazole-6,7-diol] | 0.17 | 
23 | CCCNC1=N[C@@H]2[C@@H](O)[C@H](O)[C@@H]([C@H](C)O)O[C@@H]2S1 [Example 2, (3aR,5R,6S,7R,7aR)-5-((S)-1-hydroxyethyl)-2-(propylamino)-5,6,7,7a-tetrahydro-3aH-pyrano[3,2-d]thiazole-6,7-diol] | 0.05 | 
24 | CNC1=N[C@@H]2[C@@H](O)[C@H](O)[C@@H](C(C)(C)O)O[C@@H]2S1 [Example 3, (3aR,5S,6S,7R,7aR)-5-(2-Hydroxypropan-2-yl)-2-(methylamino)-5,6,7,7a-tetrahydro-3aH-pyrano[3,2-d]thiazole-6,7-diol] | 0.9 | 
25 | CN(C)C1=N[C@@H]2[C@@H](O)[C@H](O)[C@@H](C(C)(C)O)O[C@@H]2S1 [Example 4, (3aR,5S,6S,7R,7aR)-2-(dimethylamino)-5-(2-hydroxypropan-2-yl)-5,6,7,7a-tetrahydro-3aH-pyrano[3,2-d]thiazole-6,7-diol] | 3.1 | 
26 | CC[C@H]1O[C@@H]2SC(NC)=N[C@@H]2[C@@H](O)[C@@H]1O [Example 8, (3aR,5R,6S,7R,7aR)-5-Ethyl-2-(methylamino)-5,6,7,7a-tetrahydro-3aH-pyrano[3,2-d]thiazole-6,7-diol] | 0.68 | 
27 | CN(C)C1=N[C@@H]2[C@@H](O)[C@H](O)[C@@H]([C@@H](O)C(F)(F)F)O[C@@H]2S1 [Example 11, (3aR,5S,6S,7R,7aR)-2-(dimethylamino)-5-((R)-2,2,2-trifluoro-1-hydroxyethyl)-5,6,7,7a-tetrahydro-3aH-pyrano[3,2-d]thiazole-6,7-diol] | 0.3 | 
28 | CC(C)(O)[C@H]1O[C@@H]2SC(N3CCC3)=N[C@@H]2[C@@H](O)[C@@H]1O [Example 77, (3aR,5S,6S,7R,7aR)-2-(azetidin-1-yl)-5-(2-hydroxypropan-2-yl)-5,6,7,7a-tetrahydro-3aH-pyrano[3,2-d]thiazole-6,7-diol] | 16.3 | 
29 | CNC1=N[C@@H]2[C@@H](O)[C@H](O)[C@@H]([C@@H](O)C(F)(F)F)O[C@@H]2S1 [Example 95, (3aR,5S,6S,7R,7aR)-2-(methylamino)-5-((R)-2,2,2-trifluoro-1-hydroxyethyl)-5,6,7,7a-tetrahydro-3aH-pyrano[3,2-d]thiazole-6,7-diol] | 0.16 | 
30 | CCCNC1=N[C@@H]2[C@@H](O)[C@H](O)[C@@H]([C@@H](O)C(F)(F)F)O[C@@H]2S1 [Example 97, (3aR,5S,6S,7R,7aR)-2-(propylamino)-5-((R)-2,2,2-trifluoro-1-hydroxyethyl)-5,6,7,7a-tetrahydro-3aH-pyrano[3,2-d]thiazole-6,7-diol] | 0.17 | 
31 | CON(C)C1=N[C@@H]2[C@@H](O)[C@H](O)[C@@H]([C@@H](O)C(F)(F)F)O[C@@H]2S1 [Example 98, (3aR,5S,6S,7R,7aR)-2-(methoxy(methyl)amino)-5-((R)-2,2,2-trifluoro-1-hydroxyethyl)-5,6,7,7a-tetrahydro-3aH-pyrano[3,2-d]thiazole-6,7-diol] | 1.43 | 
32 | C[C@@H](O)[C@H]1O[C@@H]2SC(N(C)C)=N[C@@H]2[C@@H](O)[C@@H]1O [Example 104, (3aR,5R,6S,7R,7aR)-2-(dimethylamino)-5-((R)-1-hydroxyethyl)-5,6,7,7a-tetrahydro-3aH-pyrano[3,2-d]thiazole-6,7-diol] | 3.63 | 
33 | CCNC1=N[C@@H]2[C@@H](O)[C@H](O)[C@@H]([C@@H](O)CC)O[C@@H]2S1 [Example 105, (3aR,5R,6S,7R,7aR)-2-(ethylamino)-5-((S)-1-hydroxypropyl)-5,6,7,7a-tetrahydro-3aH-pyrano[3,2-d]thiazole-6,7-diol] | 3.4 | 
34 | C[C@H](O)[C@H]1O[C@@H]2SC(NCCF)=N[C@@H]2[C@@H](O)[C@@H]1O [Example 141, (3aR,5R,6S,7R,7aR)-2-(2-Fluoroethylamino)-5-((S)-1-hydroxyethyl)-5,6,7,7a-tetrahydro-3aH-pyrano[3,2-d]thiazole-6,7-diol] | 0.82 | 
35 | CNC1=N[C@@H]2[C@@H](O)[C@H](O)[C@@H](C(C)(O)C(F)(F)F)O[C@@H]2S1 (stereo partly drawn) [Example 159, (3aR,5S,6S,7R,7aR)-2-(methylamino)-5-(1,1,1-trifluoro-2-hydroxypropan-2-yl)-5,6,7,7a-tetrahydro-3aH-pyrano[3,2-d]thiazole-6,7-diol] | 1.25 | 
36 | CNC1=N[C@@H]2[C@@H](O)[C@H](O)[C@@H]([C@@H](O)C(F)F)O[C@@H]2S1 [Example 191, (3aR,5S,6S,7R,7aR)-5-((R)-2,2-difluoro-1-hydroxyethyl)-2-(methylamino)-5,6,7,7a-tetrahydro-3aH-pyrano[3,2-d]thiazole-6,7-diol] | 0.14 | 
37 | O[C@H]1[C@H](O)[C@@H]([C@H](O)C(F)(F)F)O[C@@H]2SC(NCCF)=N[C@H]12 [Example 215, (3aR,5S,6S,7R,7aR)-2-(2-fluoroethylamino)-5-((S)-2,2,2-trifluoro-1-hydroxyethyl)-5,6,7,7a-tetrahydro-3aH-pyrano[3,2-d]thiazole-6,7-diol] | 1.8 | 

Reference: patent publication US8901087B2, “Selective glycosidase inhibitors and uses thereof” (priority 2010, dated 2014)
